Experimental findings from ChEMBL document CHEMBL1150716, “Cytotoxic flavonols from Gutierrezia microcephala” (1987) are described below.

Values after ≈ are worked out from the molar mass of the structure shown.

The subject of this assay is P388. Description: Cytotoxicity against mouse P388 cells. Type of assay: functional. Particulars: read-out: ED50 (the source's name).

As for `COc1cc(O)c2c(=O)c(OC)c(-c3ccc(O)c(O)c3)oc2c1`, the EC50 came to 3.2 µg/mL (≈ 9.69 µM).
For the molecule `COc1cc(-c2oc3cc(O)cc(O)c3c(=O)c2OC)ccc1O` [3,3'-O-DIMETHYLQUERCETIN], the EC50 was found to be 1.7 µg/mL (≈ 5.15 µM).
